Test results from patent publication US20250332109A1 (Veradermics, Incorporated, priority 2024, published 2025).
Like-named read-outs stand apart in the source and are kept apart here.

Legend:
patients = settings: chronic therapy; initially, then recovers; cited from earlier work
hypertensive patients = settings: intravenous infusion; cited from earlier work
[1] = test system: person with androgenetic alopecia; assay: Case study: person with androgenetic alopecia and hypertension treated with oral minoxidil; settings: 0.625 mg four times a day
[2] = test system: person with androgenetic alopecia; settings: 1.25 mg QID
rabbits = settings: oral, 5 times the maximum recommended oral antihypertensive human dose; cited from earlier work
male adults with AGA = settings: 5 mg oral at bedtime; 24 week follow up; cited from earlier work
mice = settings: dietary, up to 2 years, 10, 25, and 63 mg/kg/day; cited from earlier work
subjects = settings: topical foam 5% versus vehicle topical foam; 404 subjects enrolled; cited from earlier work
[3] = primarily by conjugation with glucuronic acid; cited from earlier work
[4] = cited from earlier work

Nc1cc(N2CCCCC2)nc(N)[n+]1[O-] [minoxidil]
temporary decrease in hematocrit, hemoglobin, and erythrocyte count (hemodilution) (patients): approximately 7%
steady state plasma concentration associated with significant (>5 beats per minute) changes in heart rate (hypertensive patients): above 20 ng/mL
reductions in blood pressure [1]: did not experience significant reductions in blood pressure
unwanted hair growth or other adverse events [1]: No unwanted hair growth or other adverse events
unwanted hair growth or other adverse events, including cardiac effects [2]: No unwanted hair growth or other adverse events
fetal resorption (rabbits): increased fetal resorption
subjects reporting edema (male adults with AGA): 2.9%
subjects reporting vertigo (male adults with AGA): 2.9%
incidence of malignant lymphomas in females (mice): increased incidence of malignant lymphomas
SAEs reported in treated subjects (subjects): Six
fraction of oral dose metabolized [3]: About 90%
dose dependence of PK ([4]; 2.5 mg, 5 mg, 10 mg oral, PK and urinary excretion data): dose-independent PK
duration plasma concentrations above 20 ng/mL ([4]; 5 mg dose level): around 1 h
duration plasma concentrations above 20 ng/mL ([4]; 10 mg dose level): around 2 h
observed half-life ([4]; immediate release formulation, healthy subjects): around 1 h
effect on blood pressure ([4]; normotensive subjects, 2.5 mg, 5 mg, or 10 mg oral): little effect on blood pressure
